Source: the supplement of paper PMC11061612

Assays:
Test in all cases: combination Emax (second highest fraction inhibited in the dose matrix, 72 h); higher = more inhibition; extreme values may be limits of the assay
[1] = system: ALL-SIL (T-Lymphoblastic Leukemia)
Outline: (§1)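 Bliss excess equals the observed combination effect minus the expected value EA + EB − EA·EB, where EA and EB are the effects of each agent alone. Combination Emax is the second-highest inhibition within the matrix. Inhibition was scaled from CellTiter-Glo 2.0 luminescence, with 0 set by vehicle wells and 1 by blank wells, after 72 hours of two-drug dosing of cells plated in 1536-well plates.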

[2] = system: CADO-ES1 (Ewing's Sarcoma)
Outline: as §1

[3] = system: COLO-668 (Small Cell Lung Carcinoma)
Outline: as §1

[4] = system: Ca-Ski (Cervical Carcinoma)
Outline: as §1

[5] = system: DU-145 (Prostate Carcinoma)
Outline: as §1

[6] = system: EFO-21 (Ovarian Carcinoma)
Outline: as §1

[7] = system: EJM (Plasma Cell Myeloma)
Outline: as §1

[8] = system: G-401 (Other Solid Carcinomas)
Outline: as §1

[9] = system: HCC2998 (Colorectal Carcinoma)
Outline: as §1

[10] = system: Hey (Ovarian Carcinoma)
Outline: as §1

[11] = system: KMRC-1 (Kidney Carcinoma)
Outline: as §1

[12] = system: LC-1-sq (Squamous Cell Lung Carcinoma)
Outline: as §1

[13] = system: ML-2 (Acute Myeloid Leukemia)
Outline: as §1

[14] = system: Mo-T (Other Blood Carcinomas)
Outline: as §1

[15] = system: NCI-H1355 (Lung Adenocarcinoma)
Outline: as §1

[16] = system: NCI-H522 (Lung Adenocarcinoma)
Outline: as §1

[17] = system: OE33 (Esophageal Adenocarcinoma)
Outline: as §1

[18] = system: SK-N-AS (Neuroblastoma)
Outline: as §1

[19] = system: SKN (Other Solid Carcinomas)
Outline: as §1

[20] = system: SW982 (Other Solid Carcinomas)
Outline: as §1

Structure (SMILES) | combination Emax [1] | combination Emax [2] | combination Emax [3] | combination Emax [4] | combination Emax [5] | combination Emax [6] | combination Emax [7] | combination Emax [8] | combination Emax [9] | combination Emax [10] | combination Emax [11] | combination Emax [12] | combination Emax [13] | combination Emax [14] | combination Emax [15] | combination Emax [16] | combination Emax [17] | combination Emax [18] | combination Emax [19] | combination Emax [20]
CN(C)CCCOc1ccc(-c2ccc3ncc4c(c3c2)n(C2CCOCC2)c(=O)n4C)cn1 [AZD0156] + C=CCn1c(=O)c2cnc(Nc3ccc(N4CCN(C)CC4)cc3)nc2n1-c1cccc(C(C)(C)O)n1 [AZD1775] (first compound max 1 µM, partner max 1 µM) | 0.742 | 0.39 | 0.405 | 0.7 | 0.239 | 0.472 | 0.858 | 0.646 | 0.633 | 0.495 | 0.259 | 0.91 | 1 | 0.402 | 0.532 | 0.225 | 0.472 | 0.77 | 0.336 | 0.71
CN(C)CCCOc1ccc(-c2ccc3ncc4c(c3c2)n(C2CCOCC2)c(=O)n4C)cn1 [AZD0156] + CCN(CCO)CCCOc1ccc2c(Nc3cc(CC(=O)Nc4cccc(F)c4)[nH]n3)ncnc2c1 [AZD2811] (first compound max 1 µM, 7x7, partner max 1 µM) | 0.976 | 0.323 | 0.0922 | 0.274 | 0.134 | 0.116 | 0.0982 | 0.309 | 0.183 | 0.229 | 0.13 | 0.257 | 0.878 | 0.137 | 0.216 | 0.0622 | 0.068 | 0.183 | 0.042 | 0.548
CN(C)CCCOc1ccc(-c2ccc3ncc4c(c3c2)n(C2CCOCC2)c(=O)n4C)cn1 [AZD0156] + C[C@@H]1COCCN1C2=NC(=NC(=C2)C3(CC3)[S@](=N)(=O)C)C4=C5C=CNC5=NC=C4 [AZD6738] (first compound max 1 µM, 7x7, partner max 10 µM) | 0.887 | 0.903 | 0.612 | 0.668 | 0.544 | 0.549 | 0.894 | 0.493 | 0.831 | 0.84 | 0.575 | 0.877 | 0.967 | 0.481 | 0.69 | 0.0837 | 0.788 | 0.805 | 0.344 | 0.723
CN(C)CCCOc1ccc(-c2ccc3ncc4c(c3c2)n(C2CCOCC2)c(=O)n4C)cn1 [AZD0156] + O=C(c1cc(Cc2n[nH]c(=O)c3ccccc23)ccc1F)N1CCN(C(=O)C2CC2)CC1 [Olaparib] (first compound max 3 µM, partner max 3 µM) | 0.175 | 0.739 | 0.179 | 0.304 | 0.0116 | 0.252 | 0.341 | 0.3 | 0.257 | 0.408 | 0.151 | 0.184 | 0.478 | 0.402 | 0.305 | 0.258 | 0.207 | 0.169 | 0.188 | 0.4
C=CCn1c(=O)c2cnc(Nc3ccc(N4CCN(C)CC4)cc3)nc2n1-c1cccc(C(C)(C)O)n1 [AZD1775] + C1CN(CCC1(C(=O)N[C@@H](CCO)C2=CC=C(C=C2)Cl)N)C3=NC=NC4=C3C=CN4 [Capivasertib] (first compound max 3 µM, partner max 3 µM) | 0.936 | 0.621 | 0.545 | 0.825 | 0.449 | 0.515 | 0.923 | 0.646 | 0.831 | 0.726 | 0.593 | 0.761 | 0.994 | 0.894 | 0.646 | 0.612 | 0.639 | 0.766 | 0.576 | 0.674
C=CCn1c(=O)c2cnc(Nc3ccc(N4CCN(C)CC4)cc3)nc2n1-c1cccc(C(C)(C)O)n1 [AZD1775] + C[C@@H]1COCCN1C2=NC(=NC(=C2)C3(CC3)[S@](=N)(=O)C)C4=C5C=CNC5=NC=C4 [AZD6738] (first compound max 1 µM, partner max 10 µM) | 0.992 | 0.901 | 0.893 | 0.869 | 0.604 | 0.543 | 0.904 | 0.793 | 0.938 | 0.809 | 0.669 | 0.938 | 1 | 0.61 | 0.777 | 0.487 | 0.819 | – | 0.506 | 0.807
CN(CCO)CC[C@H](CSc1ccccc1)Nc1ccc(S(=O)(=O)NC(=O)c2ccc(N3CCC([C@@H](O)c4ccccc4-c4ccc(Cl)cc4)CC3)cc2)cc1S(=O)(=O)C(F)(F)F [AZD4320] + C=CCn1c(=O)c2cnc(Nc3ccc(N4CCN(C)CC4)cc3)nc2n1-c1cccc(C(C)(C)O)n1 [AZD1775] (first compound max 1 µM, partner max 1 µM) | 1 | 0.566 | – | 0.96 | 0.213 | 0.53 | 0.977 | 0.901 | 0.899 | 0.673 | 0.278 | 0.869 | 1 | 0.984 | 0.594 | 0.237 | 0.492 | 0.976 | 0.586 | 0.953
CN(CCO)CC[C@H](CSc1ccccc1)Nc1ccc(S(=O)(=O)NC(=O)c2ccc(N3CCC([C@@H](O)c4ccccc4-c4ccc(Cl)cc4)CC3)cc2)cc1S(=O)(=O)C(F)(F)F [AZD4320] + CN(C)CCCOc1ccc(-c2ccc3ncc4c(c3c2)n(C2CCOCC2)c(=O)n4C)cn1 [AZD0156] (first compound max 1 µM, 7x7, partner max 1 µM) | 1 | 0.611 | – | 0.268 | 0.0779 | 0.179 | 0.162 | 0.266 | 0.554 | 0.256 | 0.2 | 0.217 | 0.963 | 0.483 | 0.162 | 0.0875 | 0.0749 | 0.109 | 0.127 | 0.225
Cc1c2c(nn1C)CSCc1cc(n(C)n1)CSc1cc(c3ccccc3c1)OCCCc1c(C(=O)O)n(C)c3c-2c(Cl)ccc13 [AZD5991] + C[C@@H](Nc1cc(F)cc(F)c1)c1cc(C(=O)N(C)C)cc2c(=O)cc(N3CCOCC3)oc12 [AZD8186] (first compound max 1 µM, 7x7, partner max 3 µM) | 0.968 | 0.918 | 0.205 | 0.556 | 0.179 | 0.337 | 0.929 | 0.612 | 0.918 | 0.258 | 0.639 | 0.24 | 1 | 0.319 | 0.227 | 0.452 | – | 0.643 | 0.532 | 0.443
O=C(c1cc(Cc2n[nH]c(=O)c3ccccc23)ccc1F)N1CCN(C(=O)C2CC2)CC1 [Olaparib] + Cc1c2c(nn1C)CSCc1cc(n(C)n1)CSc1cc(c3ccccc3c1)OCCCc1c(C(=O)O)n(C)c3c-2c(Cl)ccc13 [AZD5991] (first compound max 10 µM, 7x7, partner max 1 µM) | – | – | 0.0291 | 0.146 | 0.121 | 0.117 | – | – | – | – | 0.0973 | – | 1 | 0.0919 | 0.146 | 0.479 | 0.0347 | 0.258 | 0.126 | 0.491
CCc1c2c(nc3ccc(O)cc13)-c1cc3c(c(=O)n1C2)COC(=O)[C@]3(O)CC [SN-38] + O=C(c1cc(Cc2n[nH]c(=O)c3ccccc23)ccc1F)N1CCN(C(=O)C2CC2)CC1 [Olaparib] (first compound max 0.3 µM, 7x7, partner max 10 µM) | 1 | 0.987 | 1 | 0.997 | 0.813 | 0.586 | 0.944 | – | – | 0.72 | 0.318 | 0.455 | 1 | 0.724 | 0.366 | 0.389 | 0.587 | 0.76 | 0.596 | 0.789
Cc1nc(-c2cn3c(n2)-c2ccc(-c4cnn(C(C)(C)C(N)=O)c4)cc2OCC3)n(C(C)C)n1 [Taselisib] + O=C(Nc1ccc2[nH]nc(-c3ccncc3)c2c1)[C@@H]1CCN(CC(=O)N2CCN(c3ccc(-c4ncccn4)cc3)CC2)C1 [SCH772984] (first compound max 10 µM, 7x7, partner max 5 µM) | – | – | 0.855 | 0.833 | 0.342 | 0.409 | – | – | – | – | 0.543 | – | 1 | 0.477 | 0.656 | 0.339 | 0.831 | 0.494 | 0.735 | 0.908
CC1(C)CCC(CN2CCN(c3ccc(C(=O)NS(=O)(=O)c4ccc(NCC5CCOCC5)c([N+](=O)[O-])c4)c(Oc4cnc5[nH]ccc5c4)c3)CC2)=C(c2ccc(Cl)cc2)C1 [Venetoclax] + CS(=O)(=O)CCNCc1ccc(-c2ccc3ncnc(Nc4ccc(OCc5cccc(F)c5)c(Cl)c4)c3c2)o1 [Lapatinib] (first compound max 1 µM, 7x7, partner max 10 µM) | – | – | 0.282 | 0.503 | 0.127 | 0.153 | – | – | – | – | 0.595 | – | 0.977 | 0.33 | 0.16 | 0.153 | 0.485 | 0.118 | 0.196 | 0.437
